Data reported in patent US11926616B2, “Aminopyrazine diol compounds as PI3K-γ inhibitors” (Incyte Corporation, priority 2018, dated 2024).
pIC50: −log10 of the molar value. Read-outs that look alike come from different tables or passages of the source.

Legend:
[1] = molecular target: PI3Kγ (p110γ) Recombinant Human Protein (Homo sapiens (Human), UniProt P48736); assay: PI3K-γ Scintillation Proximity Assay; format: biochemical; settings: 20 μM PIP2, 2 μM ATP, 13 nM PI3Kγ, 120 min, room temperature
PI3Kγ (p110γ) Recombinant Human Protein, sequence (P48736 whole entry): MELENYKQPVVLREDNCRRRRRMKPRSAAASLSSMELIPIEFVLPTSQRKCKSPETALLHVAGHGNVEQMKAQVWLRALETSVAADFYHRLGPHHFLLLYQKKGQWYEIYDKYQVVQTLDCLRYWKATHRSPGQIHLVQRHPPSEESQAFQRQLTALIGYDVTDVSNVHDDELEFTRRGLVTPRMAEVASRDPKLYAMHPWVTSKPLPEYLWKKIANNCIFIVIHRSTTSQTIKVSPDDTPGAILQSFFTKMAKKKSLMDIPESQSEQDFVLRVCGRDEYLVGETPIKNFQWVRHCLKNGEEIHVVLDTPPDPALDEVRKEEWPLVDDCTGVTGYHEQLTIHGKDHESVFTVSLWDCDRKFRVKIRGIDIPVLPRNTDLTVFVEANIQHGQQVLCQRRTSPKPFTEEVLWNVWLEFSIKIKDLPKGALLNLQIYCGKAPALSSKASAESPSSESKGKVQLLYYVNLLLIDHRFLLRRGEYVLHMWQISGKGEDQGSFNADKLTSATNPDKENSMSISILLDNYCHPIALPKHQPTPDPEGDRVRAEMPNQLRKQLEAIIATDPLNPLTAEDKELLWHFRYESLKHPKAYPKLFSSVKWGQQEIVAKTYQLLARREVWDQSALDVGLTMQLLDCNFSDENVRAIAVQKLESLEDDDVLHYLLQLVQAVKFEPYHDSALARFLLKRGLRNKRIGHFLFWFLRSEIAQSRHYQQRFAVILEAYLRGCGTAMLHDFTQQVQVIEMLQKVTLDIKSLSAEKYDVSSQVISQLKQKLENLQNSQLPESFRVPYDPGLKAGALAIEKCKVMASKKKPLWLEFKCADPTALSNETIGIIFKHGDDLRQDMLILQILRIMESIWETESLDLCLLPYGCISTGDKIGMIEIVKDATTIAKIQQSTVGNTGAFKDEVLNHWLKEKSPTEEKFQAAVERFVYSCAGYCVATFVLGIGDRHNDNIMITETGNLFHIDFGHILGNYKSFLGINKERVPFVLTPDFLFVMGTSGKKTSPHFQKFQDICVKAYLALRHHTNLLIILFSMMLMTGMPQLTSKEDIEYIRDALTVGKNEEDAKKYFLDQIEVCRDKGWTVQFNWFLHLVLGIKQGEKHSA
Text: Example B. PI3K-γ Scintillation Proximity Assay Materials: [γ-^33P]ATP (10 mCi/mL) and Wheat Germ Agglutinin (WGA) YSi SPA Scintillation Beads was purchased from Perkin Elmer (Waltham, MA). Lipid kinase substrate, D-myo-Phosphatidylinositol 4,5-bisphosphate (PtdIns(4,5)P2)D (+)-sn-1,2-di-O-octanoylglyceryl, 3-O-phospho linked (PIP2), CAS 204858-53-7, was purchased from Echelon Biosciences (Salt Lake City, UT). PI3Kγ (p110γ) Recombinant Human Protein was purchased from Life technology (Grand Island, NY). ATP, MgCl2, DTT, EDTA, MOPS and CHAPS were purchased from Sigma Aldrich (St. Louis, MO). The kinase reaction was conducted in polystyrene 384-well Greiner Bio-one white plate from Thermo Fisher Scientific in a final volume of 25 μL. Inhibitors were first diluted serially in DMSO and added to the plate wells before the addition of other reaction components. The final concentration of DMSO in the assay was 2%. The PI3Kγ assay was carried out at room temperature in 20 mM MOPS, pH 6.7, 10 mM MgCl2, 5 mM DTT and CHAPS 0.03%. Reactions were initiated by the addition of ATP, the final reaction mixture consisted of 20 μM PIP2, 2 μM ATP, 0.5 μCi [γ-^33P] ATP, 13 nM PI3Kγ. Reactions were incubated for 120 min and terminated by the addition of 40 μL SPA beads suspended in quench buffer: 163 mM potassium phosphate pH 7.8, 20% glycerol, 25 mM EDTA. The final concentration of SPA beads is 1.0 mg/mL. After the plate sealing, plates were shaken overnight at room temperature and centrifuged at 1500 rpm for 10 min, the radioactivity of the product was determined by scintillation counting on Topcount (Perkin-Elmer). IC50 determination was performed by fitting the curve of percent of the solvent control activity versus the log of the inhibitor concentration using the GraphPad Prism 6.0 software.

[2] = molecular target: PI3Kδ (p110δ/p85α) Recombinant Human Protein (Homo sapiens (Human), UniProt O00329); assay: PI3Kδ Scintillation Proximity Assay; format: biochemical; settings: 20 μM PIP2, 2 μM ATP, 3.4 nM PI3Kδ, 120 min, room temperature
PI3Kδ (p110δ/p85α) Recombinant Human Protein, sequence (O00329 whole entry): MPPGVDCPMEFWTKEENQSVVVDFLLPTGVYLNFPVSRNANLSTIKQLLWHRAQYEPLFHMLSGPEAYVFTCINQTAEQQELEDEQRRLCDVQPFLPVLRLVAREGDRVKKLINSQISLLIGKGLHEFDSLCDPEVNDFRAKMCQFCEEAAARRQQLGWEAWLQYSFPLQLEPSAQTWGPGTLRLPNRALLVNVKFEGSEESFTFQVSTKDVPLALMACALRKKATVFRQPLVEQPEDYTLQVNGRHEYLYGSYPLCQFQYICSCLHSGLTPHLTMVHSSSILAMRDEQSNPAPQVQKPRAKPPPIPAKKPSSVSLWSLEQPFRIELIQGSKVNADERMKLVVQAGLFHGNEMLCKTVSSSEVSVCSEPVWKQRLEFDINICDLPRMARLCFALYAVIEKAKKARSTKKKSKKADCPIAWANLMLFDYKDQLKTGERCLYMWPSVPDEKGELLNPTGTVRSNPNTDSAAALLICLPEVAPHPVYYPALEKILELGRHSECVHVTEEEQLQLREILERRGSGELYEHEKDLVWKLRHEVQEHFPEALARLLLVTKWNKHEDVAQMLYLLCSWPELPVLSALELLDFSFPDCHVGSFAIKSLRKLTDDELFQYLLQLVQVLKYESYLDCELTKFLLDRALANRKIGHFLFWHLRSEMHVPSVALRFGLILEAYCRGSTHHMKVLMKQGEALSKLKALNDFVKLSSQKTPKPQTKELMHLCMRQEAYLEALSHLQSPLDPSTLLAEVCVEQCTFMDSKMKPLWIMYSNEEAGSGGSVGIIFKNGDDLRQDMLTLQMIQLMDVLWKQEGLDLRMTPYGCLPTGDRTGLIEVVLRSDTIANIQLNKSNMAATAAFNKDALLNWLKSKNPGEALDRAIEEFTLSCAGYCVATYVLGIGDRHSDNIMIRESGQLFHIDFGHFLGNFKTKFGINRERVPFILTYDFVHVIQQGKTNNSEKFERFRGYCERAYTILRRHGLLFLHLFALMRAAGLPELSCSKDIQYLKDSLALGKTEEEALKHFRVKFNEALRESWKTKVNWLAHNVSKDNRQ
PI3Kδ (p110δ/p85α) Recombinant Human Protein, sequence (P27986 whole entry partner): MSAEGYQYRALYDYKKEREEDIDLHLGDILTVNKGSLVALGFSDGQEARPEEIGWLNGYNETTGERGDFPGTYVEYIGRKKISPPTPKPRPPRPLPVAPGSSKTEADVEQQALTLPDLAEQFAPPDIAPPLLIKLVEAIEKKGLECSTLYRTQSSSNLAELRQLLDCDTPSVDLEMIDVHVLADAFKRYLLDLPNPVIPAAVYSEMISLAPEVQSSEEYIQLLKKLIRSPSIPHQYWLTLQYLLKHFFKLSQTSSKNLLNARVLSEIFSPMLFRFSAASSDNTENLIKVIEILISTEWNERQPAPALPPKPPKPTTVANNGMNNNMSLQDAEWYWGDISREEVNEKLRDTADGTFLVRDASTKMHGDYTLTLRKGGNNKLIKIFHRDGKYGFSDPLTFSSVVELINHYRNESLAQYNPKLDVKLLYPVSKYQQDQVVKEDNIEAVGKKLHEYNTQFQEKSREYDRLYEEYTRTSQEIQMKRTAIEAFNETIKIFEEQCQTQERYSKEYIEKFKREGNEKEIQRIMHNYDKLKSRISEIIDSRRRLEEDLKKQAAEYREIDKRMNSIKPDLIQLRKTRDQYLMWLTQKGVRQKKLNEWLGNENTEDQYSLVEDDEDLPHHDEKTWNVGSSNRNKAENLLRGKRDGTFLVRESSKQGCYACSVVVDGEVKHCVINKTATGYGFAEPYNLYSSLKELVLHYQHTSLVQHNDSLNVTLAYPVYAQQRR
Text: Example C. PI3Kδ Scintillation Proximity Assay Materials: [γ-^33P]ATP (10 mCi/mL) and Wheat Germ Agglutinin (WGA) YSi SPA Scintillation Beads was purchased from Perkin Elmer (Waltham, MA). Lipid kinase substrate, D-myo-Phosphatidylinositol 4,5-bisphosphate (PtdIns(4,5)P2)D (+)-sn-1,2-di-O-octanoylglyceryl, 3-O-phospho linked (PIP2), CAS 204858-53-7, was purchased from Echelon Biosciences (Salt Lake City, UT). PI3Kδ (p110δ/p85α) Recombinant Human Protein was purchased from Eurofins (St Charles, MO). ATP, MgCl2, DTT, EDTA, MOPS and CHAPS were purchased from Sigma Aldrich (St. Louis, MO). The kinase reaction was conducted in polystyrene 384-well Greiner Bio-one white plate from Thermo Fisher Scientific in a final volume of 25 μL. Inhibitors were first diluted serially in DMSO and added to the plate wells before the addition of other reaction components. The final concentration of DMSO in the assay was 2%. The PI3Kδ assay was carried out at room temperature in 20 mM MOPS, pH 6.7, 10 mM MgCl2, 5 mM DTT and CHAPS 0.03%. Reactions were initiated by the addition of ATP, the final reaction mixture consisted of 20 μM PIP2, 2 μM ATP, […] [γ-^33P] ATP, 3.4 nM PI3Kδ. Reactions were incubated for 120 min and terminated by the addition of 40 μL SPA beads suspended in quench buffer: 163 mM potassium phosphate pH 7.8, 20% glycerol, 25 mM EDTA. The final concentration of SPA beads is 1.0 mg/mL. After the plate sealing, plates were shaken overnight at room temperature and centrifuged at 1500 rpm for 10 min, the radioactivity of the product was determined by scintillation counting on Topcount (PerkinElmer). IC50 determination was performed by fitting the curve of percent of the solvent control activity versus the log of the inhibitor concentration using the GraphPad Prism 6.0 software.

[3] = tested on: Phosphorylated Ribosomal Protein S6 (RPS6) in THP-1 cells; assay: THP-1 RPS6 ELISA Assay; format: cell-based, Human; settings: THP-1 cells, serum starved, 2 hours compound, 10 nM MCP-1 for 15 minutes, Phospho-RPS6 ELISA, read-out: PI3Kγ_THP1_RPS6_ELISA IC50
Description: Example A. THP-1 RPS6 ELISA Assay
To measure the Phosphorylated Ribosomal Protein S6 (RPS6) in cell lysates, THP-1 cells (Human Acute Monocytic Leukemia) are purchased from ATCC (Manassas, VA) and maintained in RPMI with 10% FBS (Gibco/Life Technologies, Carlsbad, CA). For the assay, THP-1 cells are serum starved overnight in RPMI, then plated in RPMI (2×10^5 cells/well in 90 μL) into 96-well flat-bottom tissue culture treated plates (Corning, Corning, NY), in the presence or absence of a concentration range of test compounds. Covered plates are incubated for 2 hours at 37° C., 5% CO2 then treated with or without 10 nM MCP-1(MYBioSource, San Diego, CA) for 15 minutes at 37° C., 5% CO2. Plates are centrifuged at 1600 RPM and supernatants are removed. Cells are lysed in Lysis Buffer (Cell Signaling, Danvers, MA) with Protease Inhibitor (Calbiochem/EMD, Germany), PMSF (Sigma, St Louis MO), HALTS (Thermo Fisher, Rockford, IL) for 30 min on wet ice. Cell lysates are frozen at −80° C. before testing. The lysates are tested in the Human/Mouse/Rat Phospho-RPS6 ELISA (R&D Systems, Inc. Minn, MN). The plate is measured using a microplate reader (SpectraMax M5—Molecular Devices, LLC Sunnyvale, CA) set to 450 nm with a wavelength correction of 540. IC50 determination is performed by fitting the curve of inhibitor percent inhibition versus the log of the inhibitor concentration using the GraphPad Prism 5.0 software.

| pIC50 [1] | pIC50 [2] | pIC50 ([3]; Homo sapiens) | SMILES | pIC50 [3] |
| --- | --- | --- | --- | --- |
| ≥ 7.00 | ≥ 6.30 | > 7.00 | [2H]C([2H])([2H])c1ccc(C(O)(CO)C(F)(F)F)cc1-c1cnc(N)c(C(=O)N[C@H]2CCCC[C@@H]2O)n1 (single isomer, unassigned) [Example 27] |  |
| ≥ 7.00 | ≥ 7.00 | > 7.00 | [2H]C([2H])([2H])c1ccc(C(O)(CO)C(F)(F)F)cc1-c1cnc(N)c(C(=O)N[C@H]2C[C@](O)(C(F)(F)F)C2)n1 (single isomer, unassigned) [Example 29] |  |
| ≥ 7.00 | ≥ 7.00 | > 7.00 | [2H]C([2H])([2H])c1ccc(C(O)(CO)C(F)(F)F)cc1-c1cnc(N)c(C(=O)N[C@]2(C)C[C@H](O)C2)n1 (single isomer, unassigned) [Example 30] |  |
| ≥ 7.00 | > 5.70 | > 6.30 | [2H]C([2H])([2H])c1ccc(C(O)(CO)C(F)F)cc1-c1cnc(N)c(C(=O)N[C@H]2CCCC[C@@H]2O)n1 (single isomer, unassigned) [Example 38] |  |
| ≥ 7.00 | ≥ 7.00 | > 7.00 | [2H]C([2H])([2H])c1ccc(C(O)(CO)C(F)F)cc1-c1cnc(N)c(C(=O)NC2CCOCC2)n1 (single isomer, unassigned) [Example 41] |  |
| ≥ 7.00 | ≥ 7.00 | > 7.00 | Cc1ccc(C(O)(CO)C(F)F)cc1-c1cnc(N)c(C(=O)NC23CCC(C#N)(C2)C3)n1 (single isomer, unassigned) [Example 48, 3-Amino-N-(4-cyanobicyclo[2.1.1]hexan-1-yl)-6-(5-(1,1-difluoro-2,3-dihydroxypropan-2-yl)-2-methylphenyl)pyrazine-2-carboxamide] |  |
| ≥ 7.00 | ≥ 7.00 | > 7.00 | [2H]C([2H])([2H])c1ccc(C(O)(C(O)C(F)(F)F)C(F)(F)F)cc1-c1cnc(N)c(-c2c[nH]nc2C)n1 (stereo not drawn) [Example 21, 2-(3-(5-Amino-6-(3-methyl-1H-pyrazol-4-yl)pyrazin-2-yl)-4-(methyl-d3)phenyl)-1,1,1,4,4,4-hexafluorobutane-2,3-diol] |  |
| ≥ 7.00 | ≥ 6.30 | > 7.00 | Cc1ccc(C(O)(C(C)(C)O)C(F)(F)F)cc1-c1cnc(N)c(C(=O)NC2CCOCC2)n1 (stereo not drawn) [Example 22, 3-Amino-6-(2-methyl-5-(1,1,1-trifluoro-2,3-dihydroxy-3-methylbutan-2-yl)phenyl)-N-(tetrahydro-2H-pyran-4-yl)pyrazine-2-carboxamide] |  |
| ≥ 7.00 | ≥ 7.00 | > 7.00 | Cc1ccc(C(O)(CO)C(F)F)cc1-c1cnc(N)c(C(=O)NC2(C)CCOC2)n1 [Example 47, 3-amino-6-(5-((S)-1,1-difluoro-2,3-dihydroxypropan-2-yl)-2-methylphenyl)-N-(3-methyltetrahydrofuran-3-yl)pyrazine-2-carboxamide] |  |

Further lines, the compound ahead of its results:

| SMILES | pIC50 [1] | pIC50 [2] | pIC50 ([3]; Homo sapiens) | pIC50 [3] |
| --- | --- | --- | --- | --- |
| [2H]C([2H])([2H])c1ccc(C(O)(CO)C(F)(F)F)cc1-c1cnc(N)c(C(=O)NC2CCOCC2O)n1 (single isomer, unassigned) [Example 28] | ≥ 7.00 | ≥ 6.30 | > 7.00 |  |
| [2H]C([2H])([2H])c1ccc(C(O)(CO)C(F)(F)F)cc1-c1cnc(N)c(C(=O)NC23CCC(CO)(C2)C3)n1 (single isomer, unassigned) [Example 31] | ≥ 7.00 | ≥ 7.00 | > 7.00 |  |
| [2H]C([2H])([2H])c1ccc(C(O)(CO)C(F)(F)F)cc1-c1cnc(N)c(C(=O)NC23CCC(O)(C2)C3)n1 (single isomer, unassigned) [Example 37] | ≥ 7.00 | ≥ 7.00 | > 7.00 |  |
| [2H]C([2H])([2H])c1ccc(C(O)(CO)C(F)F)cc1-c1cnc(N)c(C(=O)N[C@@H]2CCCC[C@H]2O)n1 (single isomer, unassigned) [Example 39] | ≥ 7.00 | > 5.70 | > 6.30 |  |
| [2H]C([2H])([2H])c1ccc(C(O)(CO)C(F)F)cc1-c1cnc(N)c(C(=O)NC23CCC(C#N)(C2)C3)n1 (single isomer, unassigned) [Example 40] | ≥ 7.00 | ≥ 7.00 | > 7.00 |  |
| Cc1ccc(C(O)(CO)C(F)F)cc1-c1cnc(N)c(C(=O)NC2CCOCC2)n1 (single isomer, unassigned) [Example 42] | ≥ 7.00 | ≥ 7.00 | > 7.00 |  |
| Cc1ccc([C@](O)(CO)C(F)F)cc1-c1cnc(N)c(C(=O)N[C@@H](C)CO)n1 (single isomer, unassigned) [Example 43] | ≥ 7.00 | ≥ 6.30 | > 6.30 |  |
| Cc1ccc(C(O)(CO)C(F)F)cc1-c1cnc(N)c(C(=O)NC23CCC(O)(CC2)C3)n1 (single isomer, unassigned) [Example 44, 3-Amino-6-(5-(1,1-difluoro-2,3-dihydroxypropan-2-yl)-2-methylphenyl)-N-(4-hydroxybicyclo[2.2.1]heptan-1-yl)pyrazine-2-carboxamide] | ≥ 7.00 | ≥ 7.00 | > 7.00 |  |
| Cc1ccc(C(O)(CO)C(F)(F)F)cc1-c1cnc(N)c(C2CN(S(=O)(=O)c3ccn(C)n3)C2)n1 (stereo not drawn) [Example 23, 2-(3-(5-Amino-6-(1-((1-methyl-1H-pyrazol-3-yl)sulfonyl)azetidin-3-yl)pyrazin-2-yl)-4-methylphenyl)-3,3,3-trifluoropropane-1,2-diol] | ≥ 7.00 | ≥ 6.30 | > 6.30 |  |
| Cc1ccc([C@](O)(CO)C(F)F)cc1-c1cnc(N)c(C(=O)N2CCC[C@@H]2CO)n1 [Example 45, (3-Amino-6-(5-((S)-1,1-difluoro-2,3-dihydroxypropan-2-yl)-2-methylphenyl)pyrazin-2-yl)((R)-2-(hydroxymethyl)pyrrolidin-1-yl)methanone] | ≥ 7.00 | > 5.70 |  | > 6.30 |
